Activity calls are given as the source filed them. The rule behind the calls is not given here.
What was measured:
Escherichia coli [1] = assay: Antimicrobial activity against Escherichia coli ATCC 25922 assessed as fold change in MIC incubated for 18 hrs in presence of 4 uM FeCl3 by CLSI protocol based broth microdilution method relative to control; format: functional
Staphylococcus aureus [2] = assay: Antibacterial activity against Staphylococcus aureus ATCC 25923 infected in BALB/c mouse assessed as reduction in bacterial load in lung at 5 to 10 mg/kg, ip measured after 4 to 12 hrs (reference value: 5.6 x 10^6 CFU/g); format: functional; details: dose 5-10 mg/kg, time 4-12 hrs
Erythrocyte = assay: Hemolytic activity in mouse red blood cells assessed as release of hemoglobin incubated for 1 hr by microplate reader method; format: toxicity, cell-based
Staphylococcus aureus [3] = assay: Antimicrobial activity against rifampicin-resistant Staphylococcus aureus ATCC 25923; format: functional
Klebsiella pneumoniae = assay: Antimicrobial activity against Klebsiella pneumoniae ATCC 700603 assessed as reduction of bacterial growth incubated for 18 hrs by CLSI protocol based broth microdilution method; format: functional
Cell membrane [4] = assay: Induction of outer membrane permeabilization in Pseudomonas aeruginosa ATCC 27853 by NPN fluorescent dye based assay; format: subcellular; details: DDE = dose-dependent effect
[5] = Stability in mouse serum assessed as drug degradation by measuring retention time at 10 mM measured upto 360 mins by RP-HPLC analysis; format: ADME, cell-free; details: 6 h, 10000 µM
Enterococcus faecalis = assay: Antimicrobial activity against Enterococcus faecalis ATCC 29212 assessed as reduction of bacterial growth incubated for 18 hrs by CLSI protocol based broth microdilution method; format: functional
Staphylococcus aureus [6] = assay: Antimicrobial activity against Staphylococcus aureus ATCC 25923 assessed as fold change in MIC incubated for 18 hrs in presence of 1 mM MgCl2 by CLSI protocol based broth microdilution method relative to control; format: functional
Staphylococcus aureus [7] = assay: Synergistic antibacterial activity against Staphylococcus aureus ATCC 25923 assessed as fractional inhibitory concentration index incubated for 18 hrs in presence of kanamycin by checker board assay; format: functional
Escherichia coli [8] = assay: Antimicrobial activity against Escherichia coli ATCC 25922 assessed as reduction of bacterial growth incubated for 18 hrs by CLSI protocol based broth microdilution method; format: functional
Staphylococcus aureus [9] = assay: Synergistic antibacterial activity against kanamycin-resisitant Staphylococcus aureus ATCC 25923 assessed as fractional inhibitory concentration index incubated for 18 hrs in presence of kanamycin by checker board assay; format: functional
Escherichia coli [10] = assay: Antimicrobial activity against rifampicin-resistant Escherichia coli ATCC 25922; format: functional
Escherichia coli [11] = assay: Synergistic antibacterial activity against meropenem-resistant Escherichia coli ATCC 25922 assessed as fractional inhibitory concentration index incubated for 18 hrs in presence of meropenem by checker board assay; format: functional
Staphylococcus aureus [12] = assay: Antimicrobial activity against Staphylococcus aureus ATCC 25923 assessed as breakage of cell membrane measured after 2 hrs by SEM analysis; format: functional, organism-based
[13] = Acute toxicity in ip dosed Kunming mouse assessed as lethal dose; format: organism-based; details: in vivo
Escherichia coli [14] = assay: Antimicrobial activity against Escherichia coli ATCC 25922 assessed as morphological changes measured after 4 hrs by SEM analysis; format: functional, organism-based
Staphylococcus aureus [15] = assay: Antimicrobial activity against Staphylococcus aureus ATCC 25923 assessed as disruption of biofilm formation measured after 2 hrs by SEM analysis; format: functional, organism-based
Escherichia coli [16] = assay: Antimicrobial activity against Escherichia coli ATCC 25922 assessed as fold change in MIC incubated for 18 hrs in presence of 4.5 mM KCl by CLSI protocol based broth microdilution method relative to control; format: functional
Cell membrane [17] = assay: Induction of cytoplasmic membrane depolarization in Staphylococcus aureus ATCC 25923 assessed as increase in fluorescence intensity at 1 to 4 times MIC measured after 1 min by DiSC3-5 dye based fluorescence method; format: subcellular; details: DDE = dose-dependent effect
Staphylococcus aureus [18] = assay: Antibacterial activity against Staphylococcus aureus ATCC 25923 infected BALB/c mouse assessed as reduction in pulmonary inflammatory cell infiltration at 5 to 10 mg/kg, ip measured after 24 hrs by hematoxylin and eosin staining based assay; format: functional, organism-based; details: dose 5-10 mg/kg
Staphylococcus aureus [19] = assay: Antimicrobial activity against Staphylococcus aureus ATCC 25923 assessed as fold change in MICincubated for 18 hrs in presence of 150 mM NaCl by CLSI protocol based broth microdilution method relative to control; format: functional
Escherichia coli [20] = assay: Antimicrobial activity against Escherichia coli ATCC 25922 assessed as fold change in MIC incubated for 18 hrs in presence of 150 mM NaCl by CLSI protocol based broth microdilution method relative to control; format: functional
Cell membrane [21] = assay: Induction of cytoplasmic membrane depolarization in Pseudomonas aeruginosa ATCC 27853 assessed as increase in fluorescence intensity at 1 to 4 times MIC measured after 1 min by DiSC3-5 dye based fluorescence method; format: subcellular
Staphylococcus aureus [22] = assay: Antimicrobial activity against kanamycin-resistant Staphylococcus aureus ATCC 25923; format: functional
Escherichia coli [23] = assay: Antimicrobial activity against Escherichia coli ATCC 25922 assessed as reduction of bacterial growth at 2 times MIC incubated for 18 hrs in presence of chymotrypsin by CLSI protocol based broth microdilution method; format: functional, organism-based
Cell membrane [24] = assay: Induction of inner membrane permeabilization in Escherichia coli ML-35 ATCC 43587 at 1 to 4 times MIC by ONPG based assay
Escherichia coli [25] = assay: Antimicrobial activity against Escherichia coli ATCC 25922 assessed as adherence to cell membrane measured after 30 mins by SEM analysis; format: functional, organism-based
Bacillus subtilis = assay: Antimicrobial activity against Bacillus subtilis ATCC 23857 assessed as reduction of bacterial growth incubated for 18 hrs by CLSI protocol based broth microdilution method; format: functional
[26] = system: Staphylococcus epidermidis; assay: Antimicrobial activity against Staphylococcus epidermidis ATCC 12228 assessed as reduction of bacterial growth incubated for 18 hrs by CLSI protocol based broth microdilution method; format: functional
Staphylococcus aureus [27] = assay: Antimicrobial activity against Staphylococcus aureus ATCC 25923 assessed as assessed as fold change in MIC incubated for 18 hrs in presence of 4 uM FeCl3 by CLSI protocol based broth microdilution method relative to control; format: functional
Cell membrane [28] = assay: Induction of outer membrane permeabilization in Escherichia coli ATCC 25922 by NPN fluorescent dye based assay; format: subcellular; details: DDE = dose-dependent effect
Staphylococcus aureus [29] = assay: Antimicrobial activity against Staphylococcus aureus ATCC 25923 assessed as reduction of bacterial growth incubated for 18 hrs by CLSI protocol based broth microdilution method; format: functional
Pseudomonas aeruginosa = assay: Antimicrobial activity against Pseudomonas aeruginosa ATCC 27853 assessed as reduction of bacterial growth incubated for 18 hrs by CLSI protocol based broth microdilution method; format: functional
Staphylococcus aureus [30] = assay: Antimicrobial activity against Staphylococcus aureus ATCC 25923 assessed as fold change in MIC incubated for 18 hrs in presence of 4.5 mM KCl by CLSI protocol based broth microdilution method relative to control; format: functional
Escherichia coli [31] = assay: Antimicrobial activity against Escherichia coli ATCC 25922 assessed as fold change in MIC incubated for 18 hrs in presence of 1 mM MgCl2 by CLSI protocol based broth microdilution method relative to control; format: functional
Lipopolysaccharide (LPS) = assay: Binding affinity to LPS (unknown origin) assessed as reduction in bactericidal activity against Escherichia coli ATCC 25922 at 2 times MIC incubated for 2 hrs in presence of 32 ug/ml of LPS by competitive binding assay

| Substance | fold change (FC) (Escherichia coli [1]) | Activity (Staphylococcus aureus [2]) [CFU/g] | HC10 (Erythrocyte) [µM] | MIC (Staphylococcus aureus [3]) [µM] | MIC (Klebsiella pneumoniae) [µM] | Activity (Cell membrane [4]) | Retention_time [5] [min] | MIC (Enterococcus faecalis) [µM] | fold change (FC) (Staphylococcus aureus [6]) | fractional inhibitory concentration index (FICI) (Staphylococcus aureus [7]) | MIC (Escherichia coli [8]) [µM] | fractional inhibitory concentration index (FICI) (Staphylococcus aureus [9]) | MIC (Escherichia coli [10]) [µM] | fractional inhibitory concentration index (FICI) (Escherichia coli [11]) | Activity (Staphylococcus aureus [12]) | LD50 [13] [mg/kg] | Activity (Escherichia coli [14]) | Activity (Staphylococcus aureus [15]) | fold change (FC) (Escherichia coli [16]) | Activity (Cell membrane [17]) | other results |
| --- | --- | --- | --- | --- | --- | --- | --- | --- | --- | --- | --- | --- | --- | --- | --- | --- | --- | --- | --- | --- | --- |
| H-KWKWKRRRFKWKWK-NH2 | 1 | 0 | > 256 | 4 | 16 | Dde | 11.505 | 16 | 1 | 0.5 | 8 | 0.5 | 4 | 1.25 | Active | 62.2 | Active | Active | 1 | Dde | Activity (Staphylococcus aureus [18]): Active; fold change (FC) (Staphylococcus aureus [19]): 2; fold change (FC) (Escherichia coli [20]): 1; Activity (Cell membrane [21]): Active; MIC (Staphylococcus aureus [22]): 4 µM; Activity (Escherichia coli [23]): Active; Activity (Cell membrane [24]): Active; Activity (Escherichia coli [25]): Active; MIC (Bacillus subtilis): 4 µM; MIC [26]: 4 µM; fold change (FC) (Staphylococcus aureus [27]): 1; Activity (Cell membrane [28]): Dde; MIC (Staphylococcus aureus [29]): 8 µM; MIC (Pseudomonas aeruginosa): 4 µM; fold change (FC) (Staphylococcus aureus [30]): 1; fold change (FC) (Escherichia coli [31]): 1; Activity (Lipopolysaccharide (LPS)): Active |
| H-RIRIRRRRFRIRIR-NH2 | 2 | 0 | > 256 | 4 | 8 | Dde | 10.623 | 8 | 2 | 0.5625 | 4 | 0.5625 | 4 | 0.75 | Active | 77.1 | Active | Active | 2 | Dde | Activity (Staphylococcus aureus [18]): Active; fold change (FC) (Staphylococcus aureus [19]): 2; fold change (FC) (Escherichia coli [20]): 4; Activity (Cell membrane [21]): Active; MIC (Staphylococcus aureus [22]): 4 µM; Activity (Escherichia coli [23]): Active; Activity (Cell membrane [24]): Active; Activity (Escherichia coli [25]): Active; MIC (Bacillus subtilis): 2 µM; MIC [26]: 4 µM; fold change (FC) (Staphylococcus aureus [27]): 1; Activity (Cell membrane [28]): Dde; MIC (Staphylococcus aureus [29]): 4 µM; MIC (Pseudomonas aeruginosa): 4 µM; fold change (FC) (Staphylococcus aureus [30]): 1; fold change (FC) (Escherichia coli [31]): 1; Activity (Lipopolysaccharide (LPS)): Active |

Source: ChEMBL document CHEMBL5154808, “Novel β-Hairpin Antimicrobial Peptides Containing the β-Turn Sequence of -RRRF- Having High Cell Selectivity and Low Incidence of Drug Resistance” (J Med Chem, 2022)
